Data as given in patent US5001234A, “Cyclic hydrocarbons with an aminoalkyl sidechain” (The Upjohn Company, priority 1989, dated 1991).
Where a name gives a salt, the structure may show the parent alone.

These molecules were tested on KKA^y mice with spontaneous diabetes (assay: Blood glucose lowering in the KKA^y mouse). Details: compound 1 mg/gram of chow, nonfasting blood glucose on day 4 of treatment.
Format: in vivo
Parameters: key: Compounds that have been found to have a phospholipase A2 inhibitory or antidiabetic effect as determined by at least one of the above assays are indicated in the Examples and Preparations which follow by the notation "PLA2" and/or "diabetes" respectively; Compounds that have been found to have a phospholipase A2 inhibitory or antidiabetic effect as determined by at least one of the above assays are indicated in the Examples and Preparations which follow by the notation "PLA2" and/or "diabetes" respectively
Protocol: All KKA^y mice used for screening are produced and selected by methods previously outlined, T. Fujita et al., Diabetes, 32 804-10 (1983). Groups of 6 animals each are employed.
Pre-treatment nonfasting blood glucose (NFBG) samples are measured 5 days prior to the start of a screening run by previously described methodologies. These blood sugar values are used to place animals into groups with equal mean blood glucose concentrations and to eliminate any mice with a NFBG value <250 mg/dl. On day 0, compounds chosen to be run are incorporated into ground mouse chow (Purina 5015). Compounds are included at a rate of 1 mg/gram of chow. Generally, 300 g of drugs containing diet is prepared for each group. Mice receiving ground chow only are the negative control. Each screening run also uses ciglitazone (T. Fujita, et al., supra) as a positive control (0.5 to 1.0 mg/gram chow).
Initial body and food weights are taken on day 1. Food is placed in a crock which contains an adequate amount to last for the length of the study. In order to acclimate the mice from pelleted mouse chow to ground mouse chow, they are fed the ground chow for 9 days prior to use in the screen. On day 4 of treatment, a NFBG sample is again measured, as well as food and body weights. Food consumption measurements are used to determine an average mg/kg dose the mice received over the testing period, and to evaluate the compound's effect on food consumption.
3. Acceptance of a Screening Run and Determination of Activity
Acceptance and activity are determined by the following criteria:
This group must not show a significant change (p<0.05) from pre-to post-treatment. If there is a significant decrease in blood sugar the run is not valid.
This group must show a significant depression in blood sugar mean levels from pre- to post-treatment. A lack of activity in this group would also invalidate the run.
C. Negative Control vs. Positive Control
This contrast must be significant. It is a further assurance that both control groups performed as expected.
A compound's activity is based on several criteria:
(1) A significant decrease in blood sugar mean levels from pre- to post-treatment.
(2) Negative control vs. compound: This contrast allows one to determine if these groups are dissimilar, which is required for the compound to be considered active.

SMILES	antidiabetic effect (notation "diabetes")
COc1ccc2c(c1)CC[C@@H]1[C@@H]2CC[C@]2(C)[C@@H](NCc3cccs3)CC[C@@H]12 [Example 1, 3-Methoxy-17β-[(2-thienylmethyl)amino]-estra-1,3,5-(10)-triene]	diabetes
C=CCOc1ccc2c(c1)CC[C@@H]1[C@@H]2CC[C@]2(C)[C@@H](NCc3cccc(C(F)(F)F)c3)CC[C@@H]12 [Example 2, 3-Allyloxy-17β-[((3-trifluoromethyl)phenylmethyl)-amino-estra-1,3,5(10)-triene Fumarate]	diabetes
C[C@]12CC[C@@H]3c4ccc(OCCCO)cc4CC[C@H]3[C@@H]1CC[C@@H]2NCc1cccc(C(F)(F)F)c1 [Example 3]	diabetes
COc1ccc2c(c1)C[C@@H](C)[C@@H]1[C@@H]2CC[C@]2(C)[C@@H](NCc3cccc(C(F)(F)F)c3)CC[C@@H]12 [Example 4, 3-Methoxy-7α-methyl-17β-[((3-trifluoromethyl)phenylmethyl)amino-estra-1,3,5(10)-triene Fumarate Hydrate]	diabetes
COc1ccc2c(c1)CC[C@@H]1[C@@H]2[C@@H](O)C[C@]2(C)[C@@H](NCc3cccc(C(F)(F)F)c3)CC[C@@H]12 [Example 5]	diabetes
CN(CCc1ccc(S(N)(=O)=O)cc1)[C@H]1CC[C@H]2[C@@H]3CC[C@H]4CCCC[C@]4(C)[C@H]3CC[C@]12C [Example 6]	diabetes
COc1cc2c(cc1C)[C@H]1CC[C@]3(C)[C@@H](NCCc4ccc(S(N)(=O)=O)cc4)CC[C@H]3[C@@H]1CC2 [Example 7]	diabetes
C[C@]12CC=CC[C@@H]1CC[C@@H]1[C@@H]2CC[C@]2(C)[C@@H](NCCc3ccc(S(N)(=O)=O)cc3)CC[C@@H]12 [Example 8]	diabetes

Each molecule was assayed on phospholipase A2 (assay: Phospholipase A2 inhibition by at least one of two tests: inhibition of rat neutrophil aggregation, inhibition of hog pancreas PLA2). Details: found in at least one of the assays (rat neutrophil aggregation, FMLP; hog pancreas PLA2).
Format: biochemical
Parameters: key: Compounds that have been found to have a phospholipase A2 inhibitory or antidiabetic effect as determined by at least one of the above assays are indicated in the Examples and Preparations which follow by the notation "PLA2" and/or "diabetes" respectively; Compounds that have been found to have a phospholipase A2 inhibitory or antidiabetic effect as determined by at least one of the above assays are indicated in the Examples and Preparations which follow by the notation "PLA2" and/or "diabetes" respectively
Protocol: Inhibition of Rat Neutrophil Aggregation
1. Method for Thioglycolate Broth Preparation
Weigh sufficient thioglycolate medium, USP grade, to prepare a 5% w/v solution in sterile water. Heat the solution for 10 minutes on a boiling water bath. Remove and allow the solution to cool to 20°-25°. Inject 10±0.5 ml intraperitoneally into Sprague-Dawley rats as described below.
2. Method for Rat Peritoneal Leukocyte Collection
Six (6) Sprague-Dawley, pathogen free, female rats (230-270 grams) are injected intraperitoneally with 10.0±0.5 ml thioglyco. late broth. 5% w/v […] prior to sacrifice. After sacrifice by cervical dislocation, leukocytes accumulated in the peritoneal cavity are collected by injecting 30 ml of sterile 0.9% w/v sodium chloride intraperitoneally and vigorously massaging the abdomen to assure uniform dispersion of the cells within the carcass. Use a pasteur pipet to remove approximately 20 ml of fluid with suspended cells from a small incision through the abodominal wall. Collect the cell suspension in plastic culture tubes.
3. Washing and Resuspension of Cells for Aggregation
Centrifuge the cell suspensions isolated above for 10 minutes at 1000 rpm (Sorvall RC.3, HG-4L rotor, 25° C.). Discard the supernatant. Resuspend the cells evenly in 0.9% NaCl to original volume, centrifuge a second time for 10 minutes at 1000 rpm. Discard the supernatant. […]

SMILES	phospholipase A2 inhibitory effect (notation "PLA2")
CN(C)CCCO[C@H]1CC[C@H]2[C@@H](CC[C@@H]3[C@@H]2CC[C@]2(C)C(NCCCN)CC[C@@H]32)C1 (stereo partly drawn) [Example 10, N-[(3β,5α)-3-[3-(dimethylamino)propoxy]estran.17-yl]-1,3-diaminopropane]	PLA2
C[C@]12CC[C@H]3[C@@H](CC[C@H]4C[C@@H](OCCCN)CC[C@@H]43)[C@@H]1CCC2=O [Preparation 8, N-(3β,5α)-3-(3-aminopropoxy)estran-17-one]	PLA2
